PubChem BioAssay (NCI)
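Tested at 5 concentrations; 48 h exposure; 96-well plates; endpoints linearly interpolated, else capped at highest concentration. TGI is the concentration that stops growth completely.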

Columns and labels:
Assay in all cases: DTP human tumour cell line panel, 48 h
PC-3 prostate = test system: PC-3 prostate
786-0 renal = test system: 786-0 renal
A498 renal = test system: A498 renal
A549 NSCLC = test system: A549 NSCLC
ACHN renal = test system: ACHN renal
CAKI-1 renal = test system: CAKI-1 renal
CCRF-CEM leukemia = test system: CCRF-CEM leukemia
COLO 205 colon = test system: COLO 205 colon
DU-145 prostate = test system: DU-145 prostate
EKVX NSCLC = test system: EKVX NSCLC
HCC-2998 colon = test system: HCC-2998 colon
HCT-116 colon = test system: HCT-116 colon
HCT-15 colon = test system: HCT-15 colon
HL-60(TB) leukemia = test system: HL-60(TB) leukemia
HOP-92 NSCLC = test system: HOP-92 NSCLC
HS 578T breast = test system: HS 578T breast
HT29 colon = test system: HT29 colon
IGROV1 ovarian = test system: IGROV1 ovarian
KM12 colon = test system: KM12 colon
LOX IMVI melanoma = test system: LOX IMVI melanoma
M14 melanoma = test system: M14 melanoma
MALME-3M melanoma = test system: MALME-3M melanoma
MCF7 breast = test system: MCF7 breast
MDA-MB-231 breast = test system: MDA-MB-231 breast
MDA-MB-435 = test system: MDA-MB-435
MOLT-4 leukemia = test system: MOLT-4 leukemia
NCI-H226 lung = test system: NCI-H226 lung
NCI-H23 lung = test system: NCI-H23 lung
NCI-H460 lung = test system: NCI-H460 lung
NCI-H522 lung = test system: NCI-H522 lung
NCI/ADR-RES ovarian = test system: NCI/ADR-RES ovarian
OVCAR-3 ovarian = test system: OVCAR-3 ovarian
OVCAR-4 ovarian = test system: OVCAR-4 ovarian
OVCAR-8 ovarian = test system: OVCAR-8 ovarian
RPMI-8226 leukemia = test system: RPMI-8226 leukemia
RXF 393 renal = test system: RXF 393 renal
SF-268 CNS = test system: SF-268 CNS
SF-295 CNS = test system: SF-295 CNS
SF-539 CNS = test system: SF-539 CNS
SK-MEL-2 melanoma = test system: SK-MEL-2 melanoma
SK-MEL-28 melanoma = test system: SK-MEL-28 melanoma
SK-MEL-5 melanoma = test system: SK-MEL-5 melanoma
SK-OV-3 ovarian = test system: SK-OV-3 ovarian
SN12C renal = test system: SN12C renal
SNB-19 CNS = test system: SNB-19 CNS
SNB-75 CNS = test system: SNB-75 CNS
SR leukemia = test system: SR leukemia
SW-620 colon = test system: SW-620 colon
T-47D breast = test system: T-47D breast
TK-10 renal = test system: TK-10 renal
U251 CNS = test system: U251 CNS
UACC-257 melanoma = test system: UACC-257 melanoma
UACC-62 melanoma = test system: UACC-62 melanoma
UO-31 renal = test system: UO-31 renal

`CC(=O)OCC(=O)[C@@]1(O)CC[C@H]2[C@@H]3CCC4=CC(=O)C=C[C@]4(C)[C@@]3(F)[C@@H](O)C[C@@]21C` gave a TGI (PC-3 prostate) greater than 100 µM.

`O=C(NCc1ccccc1)c1cnc(Cl)cn1` showed a TGI (786-0 renal) greater than 100 µM, a TGI (A498 renal) greater than 100 µM and a TGI (A549 NSCLC) greater than 100 µM. It also gave a TGI (ACHN renal) of 44.1 µM, a TGI (CAKI-1 renal) of 33 µM and a TGI (CCRF-CEM leukemia) of 62.6 µM. The TGI (COLO 205 colon) was greater than 100 µM, the TGI (DU-145 prostate) was greater than 100 µM and the TGI (EKVX NSCLC) was greater than 100 µM. It also gave a TGI (HCC-2998 colon) of 43.3 µM, a TGI (HCT-116 colon) greater than 100 µM and a TGI (HCT-15 colon) of 82.4 µM. The TGI (HL-60(TB) leukemia) was greater than 100 µM, the TGI (HOP-92 NSCLC) was 55 µM and the TGI (HS 578T breast) was greater than 100 µM. For the same compound, the TGI (HT29 colon) was greater than 100 µM, the TGI (IGROV1 ovarian) was greater than 100 µM and the TGI (KM12 colon) was greater than 100 µM. It also gave a TGI (LOX IMVI melanoma) greater than 100 µM, a TGI (M14 melanoma) greater than 100 µM and a TGI (MALME-3M melanoma) greater than 100 µM. The TGI (MCF7 breast) was greater than 100 µM, the TGI (MDA-MB-231 breast) was greater than 100 µM and the TGI (MDA-MB-435) was greater than 100 µM. For the same compound, the TGI (MOLT-4 leukemia) was greater than 100 µM, the TGI (NCI-H226 lung) was greater than 100 µM and the TGI (NCI-H23 lung) was 87.4 µM. For the same compound, the TGI (NCI-H460 lung) was greater than 100 µM, the TGI (NCI-H522 lung) was 4.35 µM and the TGI (NCI/ADR-RES ovarian) was 44.2 µM. The TGI (OVCAR-3 ovarian) was greater than 100 µM, the TGI (OVCAR-4 ovarian) was greater than 100 µM and the TGI (OVCAR-8 ovarian) was greater than 100 µM. The TGI (RPMI-8226 leukemia) was greater than 100 µM, the TGI (RXF 393 renal) was greater than 100 µM and the TGI (SF-268 CNS) was greater than 100 µM. For the same compound, the TGI (SF-295 CNS) was greater than 100 µM, the TGI (SF-539 CNS) was greater than 100 µM and the TGI (SK-MEL-2 melanoma) was greater than 100 µM. For the same compound, the TGI (SK-MEL-28 melanoma) was greater than 100 µM, the TGI (SK-MEL-5 melanoma) was greater than 100 µM and the TGI (SK-OV-3 ovarian) was greater than 100 µM. It also gave a TGI (SN12C renal) greater than 100 µM, a TGI (SNB-19 CNS) greater than 100 µM and a TGI (SNB-75 CNS) greater than 100 µM. For the same compound, the TGI (SR leukemia) was 69.8 µM, the TGI (SW-620 colon) was greater than 100 µM and the TGI (T-47D breast) was greater than 100 µM. The TGI (TK-10 renal) was greater than 100 µM, the TGI (U251 CNS) was greater than 100 µM and the TGI (UACC-257 melanoma) was greater than 100 µM. It also gave a TGI (UACC-62 melanoma) greater than 100 µM and a TGI (UO-31 renal) of 36.3 µM.
